From patent publication US10738045B2, “Pesticidally active heterocyclic derivatives with sulphur and cyclopropyl containing substituents” (SYNGENTA PARTICIPATIONS AG, priority 2015, dated 2020)

Tests used:
Assay in all cases: whole plant or invertebrate
Format in all cases: in vivo
[1] = test system: Spodoptera littoralis (Egyptian Cotton Leaf Worm); conditions: foliar, 72 h, application rate of 200 ppm, L1 larvae, 3 days after infestation, read-out: control (mortality, anti-feeding effect or growth inhibition)
Experimental: Cotton leaf discs were placed onto agar in 24-well microtiter plates and sprayed with aqueous test solutions prepared from 10,000 ppm DMSO stock solutions. After drying the leaf discs were infested with five L1 larvae. The samples were assessed for mortality, anti-feeding effect, and growth inhibition in comparison to untreated samples 3 days after infestation.

[2] = test system: Diabrotica balteata (Corn Root Worm); conditions: 96 h, application rate of 200 ppm, L2 larvae, 4 days after infestation, read-out: effect in at least one of the two categories (mortality or growth inhibition)
Experimental: Maize sprouts placed onto an agar layer in 24-well microtiter plates were treated with aqueous test solutions prepared from 10,000 ppm DMSO stock solutions by spraying. After drying, the plates were infested with L2 larvae (6 to 10 per well). The samples were assessed for mortality and growth inhibition in comparison to untreated samples 4 days after infestation.

[3] = test system: Spodoptera littoralis (Egyptian Cotton Leaf Worm); conditions: 144 h, test rate of 12.5 ppm, lettuce grown on treated agar, 6 days after infestation, read-out: effect in at least one of the three categories (mortality, anti-feeding, or growth inhibition)
Excerpt: Test compounds were applied by pipette from 10,000 ppm DMSO stock solutions into 24-well plates and mixed with agar. Lettuce seeds were placed onto the agar and the multi well plate was closed by another plate which contained also agar. After 7 days the compound was absorbed by the roots and the lettuce grew into the lid plate. The lettuce leaves were then cut off into the lid plate. Spodoptera eggs were pipetted through a plastic stencil onto a humid gel blotting paper and the lid plate was closed with it. The samples were assessed for mortality, anti-feedant effect and growth inhibition in comparison to untreated samples 6 days after infestation.

[4] = test system: Euschistus heros (Neotropical Brown Stink Bug); conditions: in Glycine max, 120 h, application rate of 200 ppm, N2 nymphs, 5 days after infestation, read-out: effect in at least one of the two categories (mortality or growth inhibition)
Experimental: Soybean leaves on agar in 24-well microtiter plates were sprayed with aqueous test solutions prepared from 10,000 ppm DMSO stock solutions. After drying the leaves were infested with N2 nymphs. The samples were assessed for mortality and growth inhibition in comparison to untreated samples 5 days after infestation.

[5] = test system: Plutella xylostella (Diamond Back Moth); conditions: 120 h, application rate of 200 ppm, L2 larvae, 5 days after infestation, read-out: effect in at least one of the two categories (mortality or growth inhibition)
Experimental: 24-well microtiter plates with artificial diet were treated with aqueous test solutions prepared from 10,000 ppm DMSO stock solutions by pipetting. After drying, the plates were infested with L2 larvae (10 to 15 per well). The samples were assessed for mortality and growth inhibition in comparison to untreated samples 5 days after infestation.

[6] = test system: Thrips tabaci (Onion Thrips); conditions: foliar, 144 h, application rate of 200 ppm, sunflower leaf discs, population of mixed ages, 6 days after infestation
Experimental: Sunflower leaf discs were placed on agar in 24-well microtiter plates and sprayed with aqueous test solutions prepared from 10,000 ppm DMSO stock solutions. After drying the leaf discs were infested with a thrips population of mixed ages. The samples were assessed for mortality 6 days after infestation.

[7] = test system: Myzus persicae (Green Peach Aphid); conditions: foliar, 144 h, application rate of 200 ppm, sunflower leaf discs, population of mixed ages, 6 days after infestation
Experimental: Sunflower leaf discs were placed onto agar in a 24-well microtiter plate and sprayed with aqueous test solutions prepared from 10,000 ppm DMSO stock solutions. After drying, the leaf discs were infested with an aphid population of mixed ages. The samples were assessed for mortality 6 days after infestation.

[8] = test system: Bemisia tabaci (Cotton White Fly); conditions: foliar, 144 h, application rate of 200 ppm, cotton leaf discs, adult white flies, 6 days after incubation
Experimental: Cotton leaf discs were placed on agar in 24-well microtiter plates and sprayed with aqueous test solutions prepared from 10,000 ppm DMSO stock solutions. After drying the leaf discs were infested with adult white flies. The samples were checked for mortality 6 days after incubation.

[9] = test system: Frankliniella occidentalis (Western Flower Thrips); conditions: foliar, 168 h, application rate of 200 ppm, sunflower leaf discs, population of mixed ages, 7 days after infestation
Experimental: Sunflower leaf discs were placed on agar in 24-well microtiter plates and sprayed with aqueous test solutions prepared from 10,000 DMSO stock solutions. After drying the leaf discs were infested with a Frankliniella population of mixed ages. The samples were assessed for mortality 7 days after infestation.

[10] = test system: Myzus persicae (Green Peach Aphid); conditions: 144 h, test rate of 24 ppm, roots of pea seedlings in test solution, 6 days
Experimental: Roots of pea seedlings infested with an aphid population of mixed ages were placed directly into aqueous test solutions prepared from 10,000 DMSO stock solutions. The samples were assessed for mortality 6 days after placing seedlings into test solutions.

[11] = test system: Tetranychus urticae (Two-Spotted Spider Mite); conditions: foliar, 192 h, application rate of 200 ppm, bean leaf discs, mixed population (mobile stages), 8 days after infestation
Experimental: Bean leaf discs on agar in 24-well microtiter plates were sprayed with aqueous test solutions prepared from 10,000 ppm DMSO stock solutions. After drying the leaf discs were infested with a mite population of mixed ages. The samples were assessed for mortality on mixed population (mobile stages) 8 days after infestation.

CCS(=O)(=O)c1cc(Br)cnc1-c1nc2cc(C(F)(F)F)n(C3CC3)c(=O)c2n1C [Compound A5, 2-(5-bromo-3-ethylsulfonyl-2-pyridyl)-5-cyclopropyl-3-methyl-6-(trifluoromethyl)imidazo[4,5-c]pyridin-4-one]
≥ 80%: percent control (mortality, anti-feedant effect or growth inhibition) at 200 ppm [1] | percent effect (mortality or growth inhibition) at 200 ppm [2] | percent effect (mortality, anti-feeding or growth inhibition) at 12.5 ppm [3] | percent effect (mortality or growth inhibition) at 200 ppm [4] | percent effect (mortality or growth inhibition) at 200 ppm [5] | mortality at 200 ppm [6] | mortality at 200 ppm [7] | mortality at 200 ppm [8]

CCS(=O)(=O)c1cc(-c2cc(C(F)(F)F)ccn2)cnc1-c1nc2cc(C(F)(F)F)n(C3CC3)c(=O)c2n1C [Compound A7, 5-cyclopropyl-2-[3-ethylsulfonyl-5-[4-(trifluoromethyl)-2-pyridyl]-2-pyridyl]-3-methyl-6-(trifluoromethyl)imidazo[4,5-c]pyridin-4-one]
≥ 80%: percent control (mortality, anti-feedant effect or growth inhibition) at 200 ppm [1] | percent effect (mortality or growth inhibition) at 200 ppm [2] | mortality at 200 ppm [9] | percent effect (mortality or growth inhibition) at 200 ppm [4] | percent effect (mortality or growth inhibition) at 200 ppm [5] | mortality at 200 ppm [7] | mortality at 200 ppm [8]

CCS(=O)(=O)c1cc(C(F)(F)F)cnc1-c1nc2cc(C(F)(F)F)n(C3CC3)c(=O)c2n1C [Compound A1, 5-cyclopropyl-2-[3-ethylsulfonyl-5-(trifluoromethyl)-2-pyridyl]-3-methyl-6-(trifluoromethyl) imidazo[4,5-c]pyridin-4-one]
≥ 80%: percent control (mortality, anti-feedant effect or growth inhibition) at 200 ppm [1] | percent effect (mortality or growth inhibition) at 200 ppm [2] | percent effect (mortality, anti-feeding or growth inhibition) at 12.5 ppm [3] | mortality at 200 ppm [9] | percent effect (mortality or growth inhibition) at 200 ppm [4] | percent effect (mortality or growth inhibition) at 200 ppm [5] | mortality at 200 ppm [6] | mortality at 200 ppm [7] | mortality at 200 ppm [8]

CCS(=O)(=O)c1cc(-c2cc(F)cc(F)c2)cnc1-c1nc2cc(C(F)(F)F)n(C3CC3)c(=O)c2n1C [Compound A6, 5-cyclopropyl-2-[5-(3,5-difluorophenyl)-3-ethylsulfonyl-2-pyridyl]-3-methyl-6-(trifluoromethyl)imidazo[4,5-c]pyridin-4-one]
≥ 80%: percent control (mortality, anti-feedant effect or growth inhibition) at 200 ppm [1] | percent effect (mortality or growth inhibition) at 200 ppm [2] | percent effect (mortality, anti-feeding or growth inhibition) at 12.5 ppm [3] | mortality at 200 ppm [9] | percent effect (mortality or growth inhibition) at 200 ppm [4] | percent effect (mortality or growth inhibition) at 200 ppm [5] | mortality at 200 ppm [6] | mortality at 200 ppm [7] | mortality at 200 ppm [8]

CCS(=O)(=O)c1cc(C2(C#N)CC2)cnc1-c1nc2cc(C(F)(F)F)n(C3CC3)c(=O)c2n1C [Compound A31, 1-[6-[5-cyclopropyl-3-methyl-4-oxo-6-(trifluoromethyl)imidazo[4,5-c]pyridin-2-yl]-5-ethylsulfonyl-3-pyridyl]cyclopropanecarbonitrile]
≥ 80%: percent control (mortality, anti-feedant effect or growth inhibition) at 200 ppm [1] | percent effect (mortality or growth inhibition) at 200 ppm [2] | percent effect (mortality, anti-feeding or growth inhibition) at 12.5 ppm [3] | mortality at 200 ppm [9] | percent effect (mortality or growth inhibition) at 200 ppm [4] | percent effect (mortality or growth inhibition) at 200 ppm [5] | mortality at 200 ppm [6] | mortality at 24 ppm [10] | mortality at 200 ppm [7] | mortality at 200 ppm [8] | mortality at 200 ppm [11]

CCS(=O)(=O)c1cc(-n2cnc(Cl)n2)cnc1-c1nc2cc(C(F)(F)F)n(C3CC3)c(=O)c2n1C [Compound A34, 2-[5-(3-chloro-1,2,4-triazol-1-yl)-3-ethylsulfonyl-2-pyridyl]-5-cyclopropyl-3-methyl-6-(trifluoromethyl)imidazo[4,5-c]pyridin-4-one]
≥ 80%: percent control (mortality, anti-feedant effect or growth inhibition) at 200 ppm [1] | percent effect (mortality or growth inhibition) at 200 ppm [2] | percent effect (mortality, anti-feeding or growth inhibition) at 12.5 ppm [3] | mortality at 200 ppm [9] | percent effect (mortality or growth inhibition) at 200 ppm [4] | percent effect (mortality or growth inhibition) at 200 ppm [5] | mortality at 200 ppm [7]

CCS(=O)(=O)c1cc(-n2ccc(C(F)(F)F)n2)cnc1-c1nc2cc(C(F)(F)F)n(C3CC3)c(=O)c2n1C [Compound A3, 5-cyclopropyl-2-[3-ethylsulfonyl-5-[3-(trifluoromethyl)pyrazol-1-yl]-2-pyridyl]-3-methyl-6-(trifluoromethyl)imidazo[4,5-c]pyridin-4-one]
≥ 80%: percent control (mortality, anti-feedant effect or growth inhibition) at 200 ppm [1] | percent effect (mortality or growth inhibition) at 200 ppm [2] | percent effect (mortality or growth inhibition) at 200 ppm [4] | percent effect (mortality or growth inhibition) at 200 ppm [5]
